# In patent publication US20060210478A1, “Steady state perfusion methods” (priority 2005, published 2006):
# Key:
# [1] = test system: domestic pig; conditions: pig with 80-90% LCX stenosis; 0.05 mmol/kg i.v.; 0.25 mg/kg/min adenosine; confirmed by fluorescent microspheres post-mortem
# Source text: (§1) A domestic pig (approx 60 kg B.W.) is anesthetized and intubated. The animal undergoes surgical intervention to partially occlude the distal portion of the left circumflex coronary artery (LCX). A calibrated angioplasty balloon is delivered by catheter, guided by X-ray fluoroscopy, from the femoral artery to the heart. It is advanced into the Left Circumflex coronary artery and inflated to create the equivalent of an 80-90% stenosis. The balloon catheter will remain inflated and at a constant inflation pressure for the duration of the imaging procedure, to simulate a static lesion and stenosis in the coronary artery.
# The pig is then transported to the MRI suite and remains under general anesthesia and intubated for the duration of the imaging examination. Sufficient MRI scout scans to plan the myocardial imaging are aquired. […] Enough time (ca. 10 minutes) for the agent to achieve equilibrium in the blood elapses before perfusion imaging commences.
# Perfusion imaging is performed using a gradient echo method in order to sensitize the MRI to the lowered T1 of the imaging agent (TR=3.2 ms, FA=12°). Three short-axis 10 mm slices are acquired, so that 16 of the 17 AHA/ACC myocardial segments can be visualized. In this implementation, cardiac-triggering is employed to control heart motion and breathing is suspended to eliminate diaphragmatic motion. […]
# [2] = test system: domestic pig; conditions: pig with 80-90% LCX stenosis; 0.05 mmol/kg i.v.; 0.25 mg/kg/min adenosine; confirmed by fluorescent microspheres post-mortem; remark: listed apart in the source
# Source text: as §1
# The pig is then transported to the MRI suite and remains under general anesthesia and intubated for the duration of the imaging examination. Sufficient MRI scout scans to plan the myocardial imaging are aquired. 0.05 mmol/kg of MS-325 is administered as a single intraveneous injection. Enough time (ca. 10 minutes) for the agent to achieve equilibrium in the blood elapses before perfusion imaging.
# Perfusion imaging is performed using a gradient echo method in order to sensitize the MRI to the lowered T1 of the imaging agent (TR=5.0 ms, FA=12°). Three 10 mm short-axis slices are acquired, so that 16 of the 17 AHA/ACC myocardial segments can be visualized. […]
# [3] = test system: domestic pig; conditions: pig with 80-90% LCX stenosis, 0.05 mmol/kg i.v.
# Source text: A domestic pig (approx 50 kg B.W.) is anesthetized and intubated. The animal undergoes surgical intervention to partially occlude the distal portion of the left circumflex coronary artery (LCX). A calibrated angioplasty balloon is delivered by catheter, guided by X-ray fluoroscopy, from the femoral artery to the heart. It is advanced into the left circumflex coronary artery and inflated to create the equivalent of an 80-90% stenosis. The balloon catheter will remain inflated and at a constant inflation pressure for the duration of the imaging procedure, to simulate a static lesion and stenosis in the coronary artery.
# The pig is then transported to the MRI suite and remains under general anesthesia and intubated for the duration of the imaging examination. Sufficient MRI scout scans to plan the myocardial imaging are acquired. Then 0.05 mmol/kg of MS-325 is administered as a single intraveneous injection. Enough time (ca. 10 minutes) for the agent to achieve equilibrium in the blood elapses before imaging commences.
# Perfusion imaging is performed using a saturation-recovery gradient echo methods in order to sensitize the MRI to the lowered T1 of the imaging agent. Three short-axis slices (7.5 mm, with 7.5 mm slice separations) are acquired, so that 16 of the 17 AHA/ACC myocardial segments can be visualized. […]
structure (smiles),measurement,setting,value
O=C([O-])CN(CCN(CC(=O)[O-])C[C@H](COP(=O)([O-])OC1CCC(c2ccccc2)(c2ccccc2)CC1)N(CC(=O)[O-])CC(=O)[O-])CC(=O)[O-].[Gd+3].[H+].[H+].[H+] [MS-325],Analysis of MR images during vasodilatory stress,[1],a hypo-intense region in the wall of the left ventricle
same,Analysis of MR images during adenosine stress,[2],a hypo-intense region in the myocardial wall
same,Corresponding image during stress,[3]; after 5 minutes of 0.25 mg/kg/min adenosine infusion,a greater degree of negative contrast with the remaining myocardial wall
same,Analysis of MR images (perfusion imaging at rest),"[3]; imaging ca. 10 minutes after injection, before adenosine",a suspicious hypo-intense region in the anterior wall of the left ventrical
